Test results as given in patent publication US11000512B2, “Use of DDX3 inhibitors as antiproliferative agents” (AZIENDA OSPEDALIERA UNIVERSITARIA SENESE, priority 2016, dated 2021).
pIC50: −log10 of the molar value.

Experiments:
[1] = system: Human Prostate cancer cell line (PC3); test: Cytotoxicity test / growth inhibition, PC3; type: cell-based; conditions: PC3, 48 hours, cell counting
Method: (§1) Cells were purchased from American Type Culture Collection (ATCC, Manassas, Va., USA). The LNCaP (ATCC® CRL-1740™), A549 (ATCC® CCL-185™), MDA-MB-231 (ATCC® CRM-HTB-26™), 22Rv1 (ATCC® CRL-2505™), HCT-116 (ATCC® CCL-247™) and PC3 (ATCC® CRL-1435™) cells were maintained in Roswell Park Memorial Institute 1640 medium (RPMI; Euroclone, ECB9006L) supplemented with 10% fetal bovine serum (Euroclone; ECS0180L), 2 mM L-glutamine, 100 units/mL penicillin and […] streptomycin at 37° C. in an atmosphere of 5% CO2/air. DU145 (ATCC® HTB-81™), and DAOY (ATCC® HTB-186™) cells were maintained in Eagle's minimal essential medium (EMEM; Euro-clone, ECM0445L) supplemented with 10% fetal bovine serum (Euroclone; ECS0180L), 2 mM L-glutamine, 100 units/ml penicillin and […] streptomycin at 37° C. in an atmosphere of 5% CO2/air. SH-SY5Y (ATCC® CRL-2266™), DBRTG (ATCC® CRL-2020™), HeLa (ATCC® CCL-2™), HN6 cells (kindly provided by Dr Silvio Gutkind, UCSD Medical Center, Moores Cancer Center USA, Chen J. J et al, Oncotarget 2013, 4, 206-217)), U2OS (ATCC® HTB-96™), RD18 cells (kindly provided by Dr P. Boccuni Memorial Sloan-Kettering Cancer Center, New York, USA Vella S. et al. Clin Epigenetics. […]
(§2) Cell lines were seeded at appropriate densities in 2 mL growth medium in 6-wells culture plates 24 hours before the treatment with the inhibitor compounds. […] Cells were incubated 48 hours with drugs and, then, cell viability was evaluated.
(§3) Cells were detached from each well of the 6-wells plates with 300 μL of Trypsin and suspended in culture medium to a final volume of 1 mL. Cell viability was then assessed through cell counting. Cells were diluted in 1:50 ratio of an isotonic buffered diluent, Isoton (Backman Coulter), following the manufacturer's instructions, and counted using an automated cell counter (Z2 series Coulter Counter, Beckman Coulter). […]

[2] = system: Human colorectal carcinoma cell line (HCT116); test: Cytotoxicity test / growth inhibition, HCT116; type: cell-based; conditions: HCT-116, HCT116, 48 hours, cell counting
Method: as §1, §2, §3

[3] = system: Human medulloblastoma cell line (DAOY); test: Cytotoxicity test / growth inhibition, DAOY; type: cell-based; conditions: 48 hours, cell counting
Method: (§4) Cells were purchased from American Type Culture Collection (ATCC, Manassas, Va., USA). The LNCaP (ATCC® CRL-1740™), A549 (ATCC® CCL-185™), MDA-MB-231 (ATCC® CRM-HTB-26™), 22Rv1 (ATCC® CRL-2505™), HCT-116 (ATCC® CCL-247™) and PC3 (ATCC® CRL-1435™) cells were maintained in Roswell Park Memorial Institute 1640 medium (RPMI; Euroclone, ECB9006L) supplemented with 10% fetal bovine serum (Euroclone; ECS0180L), 2 mM L-glutamine, 100 units/mL penicillin and […] streptomycin at 37° C. in an atmosphere of 5% CO2/air. […]
as §2, §3

[4] = system: Human osteosarcoma cell line (U2OS); test: Cytotoxicity test / growth inhibition, U2OS; type: cell-based; conditions: 48 hours, cell counting
Method: (§5) Cells were purchased from American Type Culture Collection (ATCC, Manassas, Va., USA). The LNCaP (ATCC® CRL-1740™), A549 (ATCC® CCL-185™), MDA-MB-231 (ATCC® CRM-HTB-26™), 22Rv1 (ATCC® CRL-2505™), HCT-116 (ATCC® CCL-247™) and PC3 (ATCC® CRL-1435™) cells were maintained in Roswell Park Memorial Institute 1640 medium (RPMI; Euroclone, ECB9006L) supplemented with 10% fetal bovine serum (Euroclone; ECS0180L), 2 mM L-glutamine, 100 units/mL penicillin and […] streptomycin at 37° C. in an atmosphere of 5% CO2/air. DU145 (ATCC® HTB-81™), and DAOY (ATCC® HTB-186™) cells were maintained in Eagle's minimal essential medium (EMEM; Euro-clone, ECM0445L) supplemented with 10% fetal bovine serum (Euroclone; ECS0180L), 2 mM L-glutamine, 100 units/ml penicillin and […] streptomycin at 37° C. in an atmosphere of 5% CO2/air. SH-SY5Y (ATCC® CRL-2266™), DBRTG (ATCC® CRL-2020™), HeLa (ATCC® CCL-2™), HN6 cells (kindly provided by Dr Silvio Gutkind, UCSD Medical Center, Moores Cancer Center USA, Chen J. J et al, Oncotarget 2013, 4, 206-217)), U2OS (ATCC® HTB-96™), RD18 cells (kindly provided by Dr P. Boccuni Memorial Sloan-Kettering Cancer Center, New York, USA Vella S. et al. Clin Epigenetics. 2015 6; 7-82), cells were maintained in Dulbecco's modified Eagle's medium (DMEM; Euroclone, ECB7501L) supplemented with 10% fetal bovine serum (Euroclone; ECS0180L), 2 mM L-glutamine, 100 units/ml penicillin and […] streptomycin at 37° C. in an atmosphere of 5% CO2/air.
(§6) Cell lines were seeded at appropriate densities in 2 mL growth medium in 6-wells culture plates 24 hours before the treatment with the inhibitor compounds. After 24 h the culture medium was removed and fresh medium containing increasing concentrations of chemical compounds was added to cells. The fixed final concentrations were: 0.1 μM, 1 μM, 10 μM, 100 μM. DMSO was the vehicle used for dilution of the compounds and its final concentration on cells was less than 0.2%. Medium-only containing wells were included as controls. Cells were incubated 48 hours with drugs and, then, cell viability was evaluated.
(§7) Cells were detached from each well of the 6-wells plates with 300 μL of Trypsin and suspended in culture medium to a final volume of 1 mL. Cell viability was then assessed through cell counting. Cells were diluted in 1:50 ratio of an isotonic buffered diluent, Isoton (Backman Coulter), following the manufacturer's instructions, and counted using an automated cell counter (Z2 series Coulter Counter, Beckman Coulter). Each cell count was performed in three replicates. The values corresponding to the relative survival of cells in presence of each chemical compound at single concentrations were normalized to the untreated controls. Then, the half maximal inhibitory concentration (IC50) value, which represent the drug concentration that is required to induce a 50% growth inhibition in vitro, was calculated with GraphPad Prism 6.0 software using the best fitting sigmoid curve.

[5] = system: Human brain glioblastoma cell line (DBTRG); test: Cytotoxicity test / growth inhibition, DBTRG; type: cell-based; conditions: 48 hours, cell counting
Method: as §4, §2, §3

[6] = system: Human adenocarcinomic alveolar basal epithelial cell line (A549); test: Cytotoxicity test / growth inhibition, A549; type: cell-based; conditions: A549, 48 hours, cell counting
Method: as §5, §6, §7

[7] = system: Human muscle rhabdomyosarcoma cell line (RD18); test: Cytotoxicity test / growth inhibition, RD18; type: cell-based; conditions: RD18, 48 hours, cell counting
Method: as §4, §2, §3

[8] = system: Human breast adenocarcinoma cell line (MDA-MB-231); test: Cytotoxicity test / growth inhibition, MDA-MB-231; type: cell-based; conditions: MDA-MB-231, 48 hours, cell counting
Method: as §5, §6, §7

[9] = system: Human cervical carcinoma cell line (HeLa); test: Cytotoxicity test / growth inhibition, HeLa; type: cell-based; conditions: 48 hours, cell counting
Method: as §1, §2, §3

[10] = system: Human head and neck squamous carcinoma cell line (HN6); test: Cytotoxicity test / growth inhibition, HN6; type: cell-based; conditions: HN6, 48 hours, cell counting
Method: as §5, §6, §7

[11] = Parallel Artificial Membrane Permeability Assay (PAMPA), GI; type: in vitro ADME; conditions: GI (intestinal) PAMPA, value in brackets
Method: Parallel Artificial Membrane Permeability Assay (PAMPA). Donor solution (0.5 mM) was prepared by diluting 1 mM dimethylsulfoxide (DMSO) compound stock solution using phosphate buffer (pH 7.4, 0.025 M). Filters were coated with 5 μL of a 1% (w/v) dodecane solution of phosphatidylcholine prepared from CHCl3 solution 10% w/v, for intestinal permeability. Donor solution (150 μL) was added to each well of the filter plate. To each well of the acceptor plate were added 300 μL of solution (50% DMSO in phosphate buffer). All compounds were tested in three different plates on different days. The sandwich was incubated for 5 h at room temperature under gentle shaking. After the incubation time, the plates were separated, and samples were taken from both receiver and donor sides and analyzed using LC with UV detection at 280 nm.
LC analysis were performed with a Varian Prostar HPLC system (Varian Analytical Instruments, USA) equipped with a binary pump with a manual injection valve and model Prostar 325 UV-VIS Detector. Chromatographic separations were conducted using a Polaris C18-A column (150-4.6 mm, 5 μm particle size) at a flow rate of 0.8 mL min^−1 with a mobile phase composed of 60% ACN/40% H2O.
Permeability (Papp) for PAMPA was calculated according to the following equation, obtained from Wohnsland and Faller and Sugano et al. equation with some modification in order to obtain permeability values in cm s^−1,
where VA is the volume in the acceptor well, VD is the volume in the donor well (cm^3), A is the “effective area” of the membrane (cm^2), t is the incubation time (s) and r the ratio between drug concentration in the acceptor and equilibrium concentration of the drug in the total volume (VD+VA). Drug concentration is estimated by using the peak area integration.
Membrane retentions (%) were calculated according to the following equation: […]
where r is the ratio between drug concentration in the acceptor and equilibrium concentration, D, A, and Eq represented drug concentration in the donor, acceptor and equilibrium solution, respectively.

[12] = system: Human Prostate cell line derived from brain metastasis (DU-145); test: Cytotoxicity test / growth inhibition, DU-145; type: cell-based; conditions: DU-145, 48 hours, cell counting
Method: as §5, §6
as §3, with “Coulter). Each cell count was performed in three replicates. The values corresponding to the relative survival of cells in presence of each chemical compound at single concentrations were normalized to the untreated controls.” for “Coulter).”

[13] = system: Human Prostate carcinoma epithelial cell line (22Rv1); test: Cytotoxicity test / growth inhibition, 22Rv1; type: cell-based; conditions: 22Rv1, 48 hours, cell counting
Method: as §4, §2, §3

[14] = system: Human Prostate Adenocarcinoma cell line (LNCaP); test: Cytotoxicity test / growth inhibition, LNCaP; type: cell-based; conditions: 48 hours, cell counting
Method: as §4, §2, §3

[15] = Microsomal Stability Assay (HLM); type: in vitro ADME; conditions: human liver microsomes, 37° C., 60 min, NADPH-generating system; percentage of not metabolized compound
Excerpt: For the quantification was used an LC-MS system consisted of a Varian apparatus (Varian Inc) including a vacuum solvent degassing unit, two pumps (212-LC), a Triple Quadrupole MSD (Mod. 320-LC) mass spectrometer with ES interface and Varian MS Workstation System Control Vers. 6.9 software. Chromatographic separation was obtained using a Pursuit C18 column (50×2.0 mm) (Varian) with 3 μm particle size and gradient elution: eluent A being ACN and eluent B consisting of water. […] The flow rate was 0.2 mL min^−1 and injection volume was 5 μL. The instrument operated in positive mode and parameters were: detector 1850 V, drying gas pressure 25.0 psi, desolvation temperature 300.0° C., nebulizing gas 40.0 psi, needle 5000 V and shield 600 V. Nitrogen was used as nebulizer gas and drying gas. Collision induced dissociation was performed using Argon as the collision gas at a pressure of 1.8 mTorr in the collision cell. Microsomal Stability Assay. […] The reaction was stopped by cooling on ice and adding 1.0 mL of acetonitrile. The reaction mixtures were then centrifuged, and the parent drug and metabolites were subsequently determined by LC-UV-MS. Chromatographic analysis was performed with an Agilent 1100 LC/MSD VL system (G1946C) (Agilent Technologies, Palo Alto, Calif.) constituted by a vacuum solvent degassing unit, a binary high-pressure gradient pump, an 1100 series UV detector, and an 1100 MSD model VL benchtop mass spectrometer.
Chromatographic separation was obtained using a Varian Polaris C18-A column (150-4.6 mm, 5 μm particle size) and gradient elution: eluent A being ACN and eluent B consisting of water. […] The flow rate was 0.8 mL min^−1 and injection volume was 20 μL.
The Agilent 1100 series mass spectra detection (MSD) single-quadrupole instrument was equipped with the orthogonal spray API-ES (Agilent Technologies, Palo Alto, Calif.). Nitrogen was used as nebulizing and drying gas. The pressure of the nebulizing gas, the flow of the drying gas, the capillary voltage, the fragmentor voltage, and the vaporization temperature were set at 40 psi, 9 L/min, 3000 V, 70 V, and 350° C., respectively. UV detection was monitored at 280 nm. The LC-ESI-MS determination was performed by operating the MSD in the positive ion mode. Spectra were acquired over the scan range m/z 100-1500 using a step size of 0.1 u. The percentage of not metabolized compound was calculated by comparison with reference solutions.

[16] = system: Human Glioblastoma cell line (U87); test: Cytotoxicity test / growth inhibition, U87; type: cell-based; conditions: U87, 48 hours, cell counting
Method: as §6
as §3, with “Coulter). Each cell count was performed in three replicates. The values corresponding to the relative survival of cells in presence of each chemical compound at single concentrations were normalized to the untreated controls.” for “Coulter).”

[17] = system: Human Neuroblastoma cell line (SH-SY5Y); test: Cytotoxicity test / growth inhibition, SH-SY5Y; type: cell-based; conditions: 48 hours, cell counting
Method: as §4, §2, §3

`CCCCc1cn(-c2ccc(NC(=O)Nc3ccccc3C(F)(F)F)cc2)nn1` [Compound 22a, 1-(4-(4-butyl-1H-1,2,3-triazol-1-yl)phenyl)-3-(2-(trifluoromethyl)phenyl)urea] gave a pIC50 [1] of 4.59, a pIC50 [2] of 5.41 and a pIC50 [3] of 5.48. It also gave a pIC50 [4] of 5.38, a pIC50 [5] of 5.24 and a pIC50 [6] of 5.85. The pIC50 [7] was 5.49, the pIC50 [8] was 5.85 and the pIC50 [9] was 5.20. For the same compound, the pIC50 [10] was 6.10, the “PAMPA GI (RM %) membrane retention” value [11] was 23.9% and the pIC50 [12] was 7.00.

For `CCCCc1cn(-c2cccc(S(=O)(=O)Nc3ccccc3C(F)(F)F)c2)nn1` [Compound 64d, 3-(4-butyl-1H-1,2,3-triazol-1-yl)-N-(2-(trifluoromethyl)phenyl)benzenesulfonamide], the pIC50 [13] was 4.85, the pIC50 [14] was 4.78 and the pIC50 [6] was 4.67. For the same compound, the Sability % [15] was 99%, the pIC50 [8] was 4.80 and the pIC50 [9] was 4.29. It also gave a pIC50 [16] of 4.06, a pIC50 [17] of 4.73 and a pIC50 [12] of 5.52.
